Measurements from the Deep4Chem optical property database.

Assay: solvent given as SMILES

Q: For `COC(=O)C(NC(=O)OC(C)(C)C)c1ccc2oc(-c3cccc(Oc4ccccc4)c3)nc2c1` (stereo not given), which emission maximum (in CC1CCCCC1) is on record?
A: 325 nm

Q: And the emission maximum (in CC#N)?
A: 360 nm

Q: What about the emission maximum (in CO) of the same compound?
A: 348 nm

Q: With `C1=[N+](c2ccccc2)[B-]2(Oc3c1ccc1c4c(ccc31)C=[N+](c1ccccc1)[B-]1(O4)c3ccccc3Oc3ccccc31)c1ccccc1Oc1ccccc12` as the compound, how does the emission maximum (in Cc1ccccc1) read?
A: 605 nm

Q: What about the emission maximum (in ClCCl) of the same compound?
A: 599 nm

Q: Which emission maximum (in C1CCOC1) does the source give for `NS(=O)(=O)c1ccc(N2N=C(c3ccc(O)cc3)CC2c2ccc([N+](=O)[O-])cc2)cc1` (stereo not given) here?
A: 420 nm

Q: And the emission maximum (in C1COCCO1)?
A: 417 nm

Q: What about the emission maximum (in CC#N) of the same compound?
A: 419 nm

Q: And the emission maximum (in CC(C)O)?
A: 421 nm

Q: What about the emission maximum (in CCO) of the same compound?
A: 422 nm

Q: And the emission maximum (in CCOC(C)=O)?
A: 417 nm

Q: What about the emission maximum (in CN(C)C=O) of the same compound?
A: 422 nm

Q: And the emission maximum (in CO)?
A: 434 nm

Q: And the emission maximum (in CS(C)=O)?
A: 425 nm

Q: What about the emission maximum (in O) of the same compound?
A: 451 nm

Q: What does the source list for `Cc1cc(O)c(C(=O)/C=C/c2ccccc2[N+](=O)[O-])c(=O)o1`?
A: emission maximum (in CC#N): 480 nm; emission maximum (in ClCCl): 471 nm

Q: For `c1ccc(N(c2ccccc2)c2ccc(-c3ccc(-c4ccc(N(c5ccccc5)c5ccccc5)cc4)c4nsnc34)cc2)cc1`, which emission maximum (in ClCCl) is on record?
A: 639 nm

Q: With `CCn1c2ccccc2c2cc(-c3cc(-c4ccc5c(c4)c4ccccc4n5CC)nc(-c4ccc(OC)cc4)n3)ccc21` as the compound, how does the emission maximum (in C1CCOC1) read?
A: 385 nm

Q: What about the emission maximum (in CCOC(C)=O) of the same compound?
A: 384 nm

Q: What about the emission maximum (in CN(C)C=O) of the same compound?
A: 414 nm

Q: And the emission maximum (in Cc1ccccc1)?
A: 379 nm

Q: And the emission maximum (in ClCCl)?
A: 404 nm

Q: With `CCN(CC)c1ccc2cc(/C=C/C(=C(C#N)C#N)c3ccc(N(c4ccccc4)c4ccccc4)cc3)c(=O)oc2c1` as the compound, how does the emission maximum (in CC(C)=O) read?
A: 621 nm

Q: And the emission maximum (in CCOC(C)=O)?
A: 599 nm

Q: What about the emission maximum (in CN(C)C=O) of the same compound?
A: 636 nm

Q: What about the emission maximum (in CS(C)=O) of the same compound?
A: 643 nm

Q: What about the emission maximum (in Cc1ccccc1) of the same compound?
A: 576 nm

Q: And the emission maximum (in ClCCl)?
A: 581 nm

Q: With `CSc1cc(-c2cc3cc4c5c(c3oc2=O)CCCN5CCC4)oc(=O)c1C#N` as the compound, how does the emission maximum (in C1CCOC1) read?
A: 580 nm

Q: What about the emission maximum (in CC#N) of the same compound?
A: 603 nm

Q: And the emission maximum (in CC(C)=O)?
A: 596 nm

Q: What about the emission maximum (in CCOC(C)=O) of the same compound?
A: 575 nm

Q: What about the emission maximum (in CN(C)C=O) of the same compound?
A: 612 nm

Q: And the emission maximum (in CO)?
A: 601 nm

Q: What about the emission maximum (in CS(C)=O) of the same compound?
A: 616 nm

Q: What about the emission maximum (in Cc1ccccc1) of the same compound?
A: 553 nm

Q: And the emission maximum (in ClC(Cl)Cl)?
A: 570 nm

Q: What about the emission maximum (in ClCCl) of the same compound?
A: 586 nm

Q: For `CC(C)(C)c1ccc(Oc2cc3c4c(cc(Oc5ccc(C(C)(C)C)cc5)c5c6c(Oc7ccc(C(C)(C)C)cc7)cc7c8c(cc(Oc9ccc(C(C)(C)C)cc9)c(c2c45)c86)C(=O)OC7=O)C(=O)OC3=O)cc1`, which emission maximum (in ClC(Cl)Cl) is on record?
A: 615 nm

Q: With `O=c1c2cc(F)ccc2nc2n1[B-](F)(F)[n+]1ccccc1-2` as the compound, how does the emission maximum (in CC#N) read?
A: 437 nm

Q: And the emission maximum (in ClCCl)?
A: 438 nm

Q: With `CNc1ccc2nc3cc(Cl)c(Cl)cc3nc2c1` as the compound, how does the emission maximum (in CCO) read?
A: 599 nm

Q: For `COc1ccc2cc(-c3ccc(-c4cc5ccc(OC)cc5oc4=O)cc3)c(=O)oc2c1`, which emission maximum (in ClC(Cl)Cl) is on record?
A: 434 nm

Q: With `COc1ccc(C2CC(=O)Oc3c2c2nc4ccccc4nc2c2ccccc32)cc1` (stereo not given) as the compound, how does the emission maximum (in ClC(Cl)Cl) read?
A: 449 nm

Q: For `CCN(CC)c1ccc2c(-c3ccccc3C(=O)O)c3c([o+]c2c1)/C(=C/c1ccc2c(c1)c1ccccc1n2CC)CCC3`, which emission maximum (in ClCCl) is on record?
A: 712 nm

Q: With `CCC(C)(C)c1ccc2c(c1)C(CC)(CC)c1cc(-c3ccc4c(c3)C(CC)(CC)c3cc(C(C)(C)CC)ccc3-4)ccc1-2` as the compound, how does the emission maximum (in C1CCCCC1) read?
A: 371 nm

Q: Which emission maximum (in CC#N) does the source give for `Nc1ccc2c(c1)C(=O)O/C2=C\c1ccc(Cl)cc1` here?
A: 452.9 nm

Q: And the emission maximum (in CC(C)=O)?
A: 448.83 nm

Q: And the emission maximum (in CC(C)CO)?
A: 483.09 nm

Q: And the emission maximum (in CC(C)O)?
A: 484.97 nm

Q: What about the emission maximum (in CCCO) of the same compound?
A: 484.5 nm

Q: And the emission maximum (in CCO)?
A: 487.33 nm

Q: And the emission maximum (in CCOC(C)=O)?
A: 461.68 nm

Q: And the emission maximum (in CCOCC)?
A: 427.17 nm

Q: And the emission maximum (in CO)?
A: 492.13 nm

Q: With `O=[N+]([O-])c1ccc([N+]2=CC3=C(O[B-]2(F)F)c2ccccc2SC3)cc1` as the compound, how does the emission maximum (in ClCCl) read?
A: 575 nm

Q: For `CC(C)(C)NC(=O)c1cc2ccccc2c2ccc3c4ccccc4c4ccccc4c3c12`, which emission maximum (in ClCCl) is on record?
A: 419 nm

Q: With `c1ccc(CSc2c3ccc(=[N+]4CCCCC4)cc-3oc3cc(N4CCCCC4)ccc23)cc1` as the compound, how does the emission maximum (in ClCCl) read?
A: 619 nm

Q: For `COc1ccc(-n2c3c4ccccc4nc(-c4ccc(C#N)cc4)c3c3c2c2c(-c4ccc(C#N)cc4)nc4ccccc4c2n3-c2ccc(OC)cc2)cc1`, which emission maximum (in ClC(Cl)Cl) is on record?
A: 513 nm
